Values after ≈ are worked out from the molar mass of the structure shown. Square brackets hold non-standard residues; d marks the D form. Peptide text beside a SMILES is read from it.
Columns and labels:
[1] = test system: Trichophyton mentagrophytes; assay: microbe, parasite or virus in culture; assay type: cell-based
Experimental: (§1) Antimicrobial activity of the peptides was evaluated against Escherichia coli JCM 5491, Pseudomonas aeruginosa JCM 6119, Staphylococcus aureus JCM2874, Salmonella Typhimurium JCM1652, Acinetobacter baumannii JCM6841, Bacteroides fragilis JCM11019, Fusobacterium nucleatum JCM11025, Penicillium glabrum JCM22534, Fusarium solani JCM11383, Alternaria alternata JCM5800 (RIKEN, A research institution for basic and applied science in Japan), Micrococcus luteus NBRC13867, Bacillus subtilis NBRC3134, Propionibacterium acnes NBRC107605, Trichophyton mentagrophytes NBRC6124, Trichophyton rubrum NBRC9185, Candida krusei NBRC1395 (National Institute of Technology and Evaluation, Tokyo, Japan), Salmonella Enteritidis IID604 (The Institute of Medical Science, The University of Tokyo, Tokyo, Japan). Additionally, the clinical isolates (Drug-sensitive/resistant Pseudomonas aeruginosa and Staphylococcus aureus, Osaka University Hospital) and multidrug-resistant Acinetobacter baumannii (ATCC BAA-1605) were used. […] Serial two-fold dilutions of peptide were added to 0.1 ml of medium containing each type of bacteria and fungi at concentrations of 0.4×10^4 – 5×10^4 CFU/ml. The plates were incubated at 37°C with vigorous shaking for 24 or 48 hours. The MICs were determined as the lowest concentrations of peptide that inhibited visible bacterial growth.

[2] = test system: Trichophyton rubrum; assay: microbe, parasite or virus in culture; assay type: cell-based
Experimental: as §1

[3] = test system: bacteria; assay: Antimicrobial spectrum, bacteria; assay type: cell-based
Experimental: (§2) Antimicrobial activity of the peptides was evaluated against Escherichia coli JCM 5491, Pseudomonas aeruginosa JCM 6119, Staphylococcus aureus JCM2874, Salmonella Typhimurium JCM1652, Acinetobacter baumannii JCM6841, Bacteroides fragilis JCM11019, Fusobacterium nucleatum JCM11025, Penicillium glabrum JCM22534, Fusarium solani JCM11383, Alternaria alternata JCM5800 (RIKEN, A research institution for basic and applied science in Japan), Micrococcus luteus NBRC13867, Bacillus subtilis NBRC3134, Propionibacterium acnes NBRC107605, Trichophyton mentagrophytes NBRC6124, Trichophyton rubrum NBRC9185, Candida krusei NBRC1395 (National Institute of Technology and Evaluation, Tokyo, Japan), Salmonella Enteritidis IID604 (The Institute of Medical Science, The University of Tokyo, Tokyo, Japan). […] Serial two-fold dilutions of peptide were added to 0.1 ml of medium containing each type of bacteria and fungi at concentrations of 0.4×10^4 – 5×10^4 CFU/ml. The plates were incubated at 37°C with vigorous shaking for 24 or 48 hours. The MICs were determined as the lowest concentrations of peptide that inhibited visible bacterial growth.

[4] = test system: Penicillium glabrum; assay: MIC, broth microdilution; assay type: cell-based; conditions: fungus, individual data from two independent experiments
Experimental: as §2

[5] = test system: Candida krusei; assay: microbe, parasite or virus in culture; assay type: cell-based
Experimental: as §1

[6] = test system: Fusarium solani; assay: microbe, parasite or virus in culture; assay type: cell-based
Experimental: as §1

[7] = test system: Alternaria alternata; assay: microbe, parasite or virus in culture; assay type: cell-based
Experimental: as §1

[8] = test system: E. coli (ATCC25922); assay: microbe, parasite or virus in culture; assay type: cell-based, Escherichia coli; conditions: ATCC25922, 48 h
Experimental: as §1

[9] = test system: Salmonella Typhimurium; assay: microbe, parasite or virus in culture; assay type: cell-based; conditions: murium, 48 h
Experimental: as §2

[10] = test system: Bacteroides fragilis; assay: microbe, parasite or virus in culture; assay type: cell-based; conditions: 48 h
Experimental: as §1

[11] = test system: Micrococcus luteus; assay: microbe, parasite or virus in culture; assay type: cell-based; conditions: 48 h
Experimental: as §1

[12] = test system: S. aureus (ATCC29213); assay: microbe, parasite or virus in culture; assay type: cell-based, Staphylococcus aureus; conditions: ATCC29213, 48 h
Experimental: as §1

[13] = test system: Carbapenem-resistant Pseudomonas aeruginosa; assay type: cell-based; conditions: 48 h
Experimental: as §2

[14] = test system: Salmonella Enteritidis; assay: microbe, parasite or virus in culture; assay type: cell-based; conditions: 48 h
Experimental: as §2

[15] = test system: Multidrug-resistant Acinetobacter baumannii; assay type: cell-based; conditions: 48 h
Experimental: as §2

[16] = peptide 500 μg/ml, 37°C, 3 or 10 minutes, acetonitrile/0.1% trifluoroacetate precipitation, HPLC, N = 2 (Fig. 1E)
Experimental: In vitro stability studies were performed by incubating the peptide with rat or human serum. Human sera (Pool of donors, 5 men and 5 women) were commercially purchased from KAC (Kyoto, Japan), which has been permitted only for experiment. We don't use the human biological specimens without the documented informed consent. Rat sera were collected from rats. The peptide (500 μg/ml) was added to serum (300 μL) and incubated at 37°C. A part of samples (90 μL) were taken, and the proteins were precipitated with acetonitrile containing 0.1% trifluoroacetate (200 μL). The precipitate was separated by centrifugation. The supernatants were analyzed by high-performance liquid chromatography (HPLC).

[17] = test system: Bacillus subtilis; assay: microbe, parasite or virus in culture; assay type: cell-based; conditions: 48 h
Experimental: as §2

[18] = test system: Acinetobacter baumannii; assay type: cell-based; conditions: 48 h
Experimental: as §2

SMILES: C[C@@H]1[C@H](O)[C@@H](C)/C=C/C=C/C=C/C=C/C=C/C=C/C=C/[C@H](O[C@@H]2O[C@H](C)[C@@H](O)[C@H](N)[C@@H]2O)C[C@@H]2O[C@](O)(C[C@@H](O)C[C@@H](O)[C@H](O)CC[C@@H](O)C[C@@H](O)CC(=O)O[C@H]1C)C[C@H](O)[C@H]2C(=O)O [Amphotericin B, reference compound]
- MIC ([1]; Trichophyton mentagrophytes, fungus, broth microdilution, individual data from two independent experiments): 0.125 µg/mL (≈ 0.135 µM)
- MIC ([2]; Trichophyton rubrum, fungus, broth microdilution, individual data from two independent experiments): 0.125 µg/mL (≈ 0.135 µM)
- Inhibitory activity against bacteria [3]: failed to exhibit an inhibitory activity
- MIC [4]: 0.125 µg/mL (≈ 0.135 µM)
- MIC ([5]; Pichia kudriavzevii, fungus, broth microdilution, individual data from two independent experiments): 2 µg/mL (≈ 2.16 µM)
- MIC ([6]; Fusarium solani, fungus, broth microdilution, individual data from two independent experiments): 1 µg/mL (≈ 1.08 µM)
- MIC ([7]; Alternaria alternata, fungus, broth microdilution, individual data from two independent experiments): 1 µg/mL (≈ 1.08 µM)

SMILES: CC[C@H](C)[C@H](NC(=O)[C@H](CC(C)C)NC(=O)[C@H](CCCCN)NC(=O)[C@H](CC(C)C)NC(=O)[C@@H](N)CCSC)C(=O)N[C@@H](Cc1ccccc1)C(=O)N[C@@H](CC(C)C)C(=O)N[C@@H](Cc1c[nH]cn1)C(=O)N[C@@H](CCCNC(=N)N)C(=O)N[C@@H](CC(C)C)C(=O)N[C@@H](CCCCN)C(=O)N[C@@H](CCCNC(=N)N)C(=O)N[C@@H](CCSC)C(=O)N[C@@H](CCCNC(=N)N)C(=O)N[C@@H](CCCCN)C(=O)N[C@@H](CCCNC(=N)N)C(=O)N[C@@H](CC(C)C)C(=O)N[C@H](CCCCN)C(=O)N[C@@H](CCCNC(=N)N)C(=O)N[C@@H](CCCCN)C(=O)O [SR-0379] (H-MLKLIFLHRLKRMRKRL[dK]RK-OH)
- MIC Trichophyton mentagrophytes ([1]; 48 h): 32 µg/mL (≈ 12 µM)
- MIC E. coli (ATCC25922) [8]: 8 µg/mL (≈ 3 µM)
- MIC Trichophyton rubrum ([2]; 48 h): 64 µg/mL (≈ 24 µM)
- MIC Salmonella Typhimurium [9]: 8 µg/mL (≈ 3 µM)
- MIC Bacteroides fragilis [10]: 32 µg/mL (≈ 12 µM)
- MIC Candida krusei ([5]; 48 h): 32 µg/mL (≈ 12 µM)
- MIC Micrococcus luteus [11]: 2 µg/mL (≈ 0.75 µM)
- MIC Fusarium solani ([6]; 48 h): 8 µg/mL (≈ 3 µM)
- MIC S. aureus (ATCC29213) [12]: 16 µg/mL (≈ 6 µM)
- MIC Pseudomonas aeruginosa, Carbapenem-resistant [13]: 16 to 64 µg/mL
- MIC Alternaria alternata ([7]; 48 h): 32 µg/mL (≈ 12 µM)
- MIC Salmonella Enteritidis [14]: 8 µg/mL (≈ 3 µM)
- MIC Acinetobacter baumannii, Multidrug-resistant [15]: 16 µg/mL (≈ 6 µM)
- Stability in human serum ([16]; human serum (pool of 5 men and 5 women) 300 μL): significantly improved
- Stability in rat serum ([16]; rat serum 300 μL): significantly improved
- MIC Bacillus subtilis [17]: 2 µg/mL (≈ 0.75 µM)
- MIC Acinetobacter baumannii [18]: 8 µg/mL (≈ 3 µM)
